pIC50: −log10 of the molar value. Read-outs that look alike come from different tables or passages of the source.
How the values were obtained:
[1] = tested on: SARS-CoV-2 (USA-WA1/2020 Isolate); test: In vitro inhibition of SARS-CoV-2 in Calu-3 cells (immunostaining assay); type: cell-based
in vitro = conditions: human
[2] = cited from earlier work
[3] = conventional Topotecan therapy; cited from earlier work

| SMILES | pIC50 ([1]; Severe acute respiratory syndrome coronavirus 2, Calu-3) | inhibition of SARS-CoV-2 ([1]; Calu-3 cells, FIG. 1) | pIC50 ([1]; Severe acute respiratory syndrome coronavirus 2, Calu-3 cells, 24 h pretreatment, MOI 0.005, 48 h after inoculation, FIG. 1, read-out: IC50 of inhibition of SARS-CoV-2) | pIC50 ([1]; Severe acute respiratory syndrome coronavirus 2, replicate experiments, Calu-3 cells, FIG. 3 and FIG. 4B, read-out: IC50) | CC50 (in vitro) [nM] | plasma elimination half-life ([2]; in vivo) [h] | time of peak plasma concentrations ([2]; oral administration) [h] | dose-limiting toxicity [3] |
| --- | --- | --- | --- | --- | --- | --- | --- | --- |
| CCC(CC)COC(=O)[C@H](C)N[P@](=O)(OC[C@H]1O[C@@](C#N)(c2ccc3c(N)ncnn23)[C@H](O)[C@@H]1O)Oc1ccccc1 [Remdesivir] | 6.94 | – | – | – | – | – | – | – |
| CC[C@@]1(O)C(=O)OCc2c1cc1n(c2=O)Cc2cc3c(CN(C)C)c(O)ccc3nc2-1 [Topotecan] | – | Complete or near complete inhibition | 7.46 | 8.03 | 169 | 2 to 3 | 1 to 2 | bone marrow suppression |
